Like-named read-outs stand apart in the source and are kept apart here.
Columns and labels:
[1] = target: T1, EGFR L858R-T790M (Homo sapiens, UniProt P00533, L858R/T790M); experiment: EGFR degradation, Total EGFR (L858R-specific) HTRF, NCI-H1975; format: cell-based; details: NCI-H1975 cells, 6 hours, Total EGFR HTRF, read-out: H1975 EGFR DC50
T1 construct: NCI-H1975 (harboring EGFR heterozygous L858R-T790M mutations); host or cells: NCI-H1975
Summary of the method: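 Cells in RPMI 1640 + 10% FBS treated 6 h at 37°C with compound, 11-point half-log titration from 10 μM top, in duplicate. pY1068 and total EGFR read by HTRF (pan-EGFR antibody for wild-type A431; L858R-specific for mutants); IC50 for phospho inhibition, DC50 for 50% degradation.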

[2] = target: EGFR L858R (Homo sapiens, UniProt P00533, L858R); experiment: EGFR degradation, Total EGFR (L858R-specific) HTRF, NCI-H3255; format: cell-based; set-up: NCI-H3255 (harboring EGFR heterozygous L858R mutation); host or cells: NCI-H3255; details: NCI-H3255 cells, 6 hours, Total EGFR HTRF, read-out: H3255 EGFR DC50
Text: NCI-H1975 (harboring EGFR heterozygous L858R-T790M mutations) and NCI-H3255 (harboring EGFR heterozygous L858R mutation) were purchased from ATCC and NCI, respectively. NCI-H1975+CS (harboring EGFR heterozygous L858R-T790M-C797S mutations) was generated using CRISPR technology to introduce the additional C797S mutation by Horizon Discovery. A431 (harboring EGFR wildtype) was purchased from ATCC. RPMI 1640 no-phenol red medium and fetal bovine serum (FBS) were purchased from Gibco (Grand Island, NY, USA). Cell culture flasks and 384-well microplates were acquired from VWR (Radnor, PA, USA). Phosphorylated (pY1068) EGFR and Total EGFR (using L858R-specific detection antibody and pan-EGFR antibody for EGFR mutant cell lines and EGFR wild-type cell lines, respectively) HTRF assay kits were purchased from Cisbio (Bedford, MA, USA).
Degradation of EGFR protein containing L858R mutation or wild-type was determined based on quantification of FRET signal using a Total EGFR (L858R-specific or pan-EGFR detecting) HTRF assay kit. Phospho-EGFR (pEGFR) inhibition was determined based on quantification of FRET signal using a pY1068 EGFR HTRF assay kit. In separate assay plates, test compounds were added to the 384-well plate from a top concentration of 10 μM with 11 points, half log titration in duplicates. For each assay, 12.5 uL of cells suspended in assay media (RPMI 1640 no-phenol red medium+10% FBS) at cell densities indicated for each cell line in Table 8 below were dispensed using a multi-channel pipette to 384-well low volume white HTRF microplates containing a duplicate concentration range of test compounds and DMSO controls. The plates were kept at 37° C. with 5% CO2 for 6 hours and then incubated with either phospho EGFR or Total EGFR HTRF detection antibodies according to the cell line and EGFR mutant being assayed. Cells treated in the absence of the test compound were the negative control. Positive control was set by wells containing all reagents but no cells. FRET signal was acquired on EnVision™ Multilabel Reader (PerkinElmer, Santa Clara, CA, USA). Compound concentration that achieves 50% degradation and inhibition was reported as DC50 and IC50, respectively.

EGFR L858R, sequence (P00533 25-1210 L858R): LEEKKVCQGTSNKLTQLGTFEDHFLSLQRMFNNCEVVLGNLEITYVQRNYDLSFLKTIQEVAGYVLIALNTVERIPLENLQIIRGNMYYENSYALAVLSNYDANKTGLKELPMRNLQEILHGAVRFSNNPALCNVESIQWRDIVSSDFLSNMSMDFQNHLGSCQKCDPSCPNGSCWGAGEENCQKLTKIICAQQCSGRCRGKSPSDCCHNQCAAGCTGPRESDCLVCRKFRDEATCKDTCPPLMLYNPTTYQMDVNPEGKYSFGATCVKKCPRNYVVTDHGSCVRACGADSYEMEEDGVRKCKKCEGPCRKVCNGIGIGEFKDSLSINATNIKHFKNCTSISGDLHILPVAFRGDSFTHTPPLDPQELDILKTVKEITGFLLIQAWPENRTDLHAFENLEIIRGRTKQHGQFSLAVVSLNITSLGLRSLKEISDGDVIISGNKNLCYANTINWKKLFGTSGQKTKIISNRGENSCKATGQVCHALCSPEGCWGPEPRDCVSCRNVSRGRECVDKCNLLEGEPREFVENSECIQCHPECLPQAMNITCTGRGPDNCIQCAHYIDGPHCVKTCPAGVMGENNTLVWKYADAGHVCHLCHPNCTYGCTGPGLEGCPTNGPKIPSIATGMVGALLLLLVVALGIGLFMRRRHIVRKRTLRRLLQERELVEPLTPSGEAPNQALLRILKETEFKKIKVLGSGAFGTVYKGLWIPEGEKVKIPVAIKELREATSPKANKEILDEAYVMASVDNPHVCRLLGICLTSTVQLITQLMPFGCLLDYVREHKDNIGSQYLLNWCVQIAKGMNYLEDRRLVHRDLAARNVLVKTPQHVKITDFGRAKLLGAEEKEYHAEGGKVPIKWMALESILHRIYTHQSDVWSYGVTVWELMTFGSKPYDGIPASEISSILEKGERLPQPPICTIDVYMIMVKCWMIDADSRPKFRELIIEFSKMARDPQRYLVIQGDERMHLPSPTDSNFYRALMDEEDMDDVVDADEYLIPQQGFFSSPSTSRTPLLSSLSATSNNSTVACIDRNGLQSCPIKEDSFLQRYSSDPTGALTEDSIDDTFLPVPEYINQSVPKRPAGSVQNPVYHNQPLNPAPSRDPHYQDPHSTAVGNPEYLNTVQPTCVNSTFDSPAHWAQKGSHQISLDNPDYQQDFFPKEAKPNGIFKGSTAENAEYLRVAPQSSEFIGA
T1 sequence (P00533 25-1210 T790M/L858R): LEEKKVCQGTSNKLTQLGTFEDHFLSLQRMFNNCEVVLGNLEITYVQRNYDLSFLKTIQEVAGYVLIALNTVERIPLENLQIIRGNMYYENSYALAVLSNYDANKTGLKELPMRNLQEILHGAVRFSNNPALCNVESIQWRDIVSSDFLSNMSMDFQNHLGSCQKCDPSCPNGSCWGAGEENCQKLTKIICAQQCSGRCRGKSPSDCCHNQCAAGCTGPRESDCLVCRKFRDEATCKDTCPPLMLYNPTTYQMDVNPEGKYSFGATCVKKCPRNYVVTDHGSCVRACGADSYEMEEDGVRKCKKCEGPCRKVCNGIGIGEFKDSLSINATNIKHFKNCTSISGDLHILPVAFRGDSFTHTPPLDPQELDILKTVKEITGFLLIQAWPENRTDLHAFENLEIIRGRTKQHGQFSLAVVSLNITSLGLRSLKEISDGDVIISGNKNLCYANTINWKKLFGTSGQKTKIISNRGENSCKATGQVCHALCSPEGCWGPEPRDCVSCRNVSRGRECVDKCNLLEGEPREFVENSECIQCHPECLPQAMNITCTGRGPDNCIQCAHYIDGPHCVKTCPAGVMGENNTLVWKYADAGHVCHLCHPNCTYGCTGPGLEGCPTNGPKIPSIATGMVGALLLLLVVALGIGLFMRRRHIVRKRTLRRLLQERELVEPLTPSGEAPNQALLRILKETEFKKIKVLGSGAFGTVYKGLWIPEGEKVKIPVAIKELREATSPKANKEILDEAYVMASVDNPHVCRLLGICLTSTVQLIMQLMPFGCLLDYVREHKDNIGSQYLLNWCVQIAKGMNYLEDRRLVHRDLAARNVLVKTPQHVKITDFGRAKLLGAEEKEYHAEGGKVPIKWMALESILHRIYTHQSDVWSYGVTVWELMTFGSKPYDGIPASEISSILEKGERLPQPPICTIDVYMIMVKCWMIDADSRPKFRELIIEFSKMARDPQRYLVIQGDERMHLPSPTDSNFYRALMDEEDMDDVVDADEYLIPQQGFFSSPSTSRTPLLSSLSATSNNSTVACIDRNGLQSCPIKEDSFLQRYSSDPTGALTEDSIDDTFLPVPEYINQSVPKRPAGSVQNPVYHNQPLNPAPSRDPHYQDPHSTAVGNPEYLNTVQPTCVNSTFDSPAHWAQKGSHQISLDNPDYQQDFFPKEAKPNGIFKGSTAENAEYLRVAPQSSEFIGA

Structure (SMILES)	DC50 ([1]; Table 9B)	DC50 ([2]; Table 9B)	DC50 ([1]; Table 9A)	DC50 ([2]; Table 9A)
O=C1CCC(Nc2ccc(N3CCC(O)(CC(=O)N4CC5(C4)CN(c4ccc(-c6cc(F)c7c(c6)C(=O)N(C(C(=O)Nc6nccs6)c6ncn8c6CCC8)C7)cc4)C5)CC3)c(C(F)F)c2)C(=O)N1 (centres unmarked) [Compound 104, 2-(6-(4-(6-(2-(1-(2-(difluoromethyl)-4-((2,6-dioxopiperidin-3-yl)amino)phenyl)-4-hydroxypiperidin-4-yl)acetyl)-2,6-diazaspiro[3.3]heptan-2-yl)phenyl)-4-fluoro-1-oxoisoindolin-2-yl)-2-(6,7-dihydro-5H-pyrrolo[1,2-c]imidazol-1-yl)-N-(thiazol-2-yl)acetamide]	< 0.05 µM	< 0.05 µM	–	–
Cn1nc(N2CCC(=O)NC2=O)c2ccc(C3CCN(CC(=O)N4CCN(c5ccc(-c6cc(F)c7c(c6)C(=O)N(C(C(=O)Nc6nccs6)c6ncn8c6C[C@@H](F)C8)C7)cc5)CC4)CC3)cc21 (stereo partly drawn) [Compound 45, 2-[6-[4-[4-[2-[4-[3-(2,4-dioxohexahydropyrimidin-1-yl)-1-methyl-indazol-6-yl]-1-piperidyl]acetyl]piperazin-1-yl]phenyl]-4-fluoro-1-oxo-isoindolin-2-yl]-2-[(6R)-6-fluoro-6,7-dihydro-5H-pyrrolo[1,2-c]imidazol-1-yl]-N-thiazol-2-yl-acetamide]	–	–	< 0.05 µM	< 0.05 µM
O=C1CCC(Nc2ccc(N3CCC(O)(CC(=O)N4CCN(c5ccc(-c6cc(F)c7c(c6)C(=O)N(C(C(=O)Nc6nccs6)c6ncn8c6CCC8)C7)cc5)CC4)CC3)c(F)c2)C(=O)N1 (centres unmarked) [Compound 83, 2-(6,7-dihydro-5H-pyrrolo[1,2-c]imidazol-1-yl)-2-[6-[4-[4-[2-[1-[4-[(2,6-dioxo-3-piperidyl)amino]-2-fluoro-phenyl]-4-hydroxy-4-piperidyl]acetyl]piperazin-1-yl]phenyl]-4-fluoro-1-oxo-isoindolin-2-yl]-N-thiazol-2-yl-acetamide]	< 0.05 µM	< 0.05 µM	–	–
O=C1CC[C@H](Nc2ccc(C3CCN(CC(=O)N4CCC(n5cc(-c6cc(F)c7c(c6)C(=O)N(C(C(=O)Nc6nccs6)c6ncn8c6CCC8)C7)nn5)CC4)CC3)cc2)C(=O)N1 (stereo partly drawn) [Compound 30, 2-(6,7-Dihydro-5H-pyrrolo[1,2-c]imidazol-1-yl)-2-(6-(1-(1-(2-(4-(4-(((S)-2,6-dioxopiperidin-3-yl)amino)phenyl)piperidin-1-yl)acetyl)piperidin-4-yl)-1H-1,2,3-triazol-4-yl)-4-fluoro-1-oxoisoindolin-2-yl)-N-(thiazol-2-yl)acetamide]	–	–	< 0.05 µM	< 0.05 µM
O=C1CCC(Nc2ccc(C3CCN(C(=O)C(=O)N4CCC(Oc5ccc(-c6cc(F)c7c(c6)C(=O)N(C(C(=O)Nc6nccs6)c6ncn8c6CCC8)C7)cc5)CC4)CC3)cc2)C(=O)N1 (centres unmarked) [Compound 40, 2-(6,7-dihydro-5H-pyrrolo[1,2-c]imidazol-1-yl)-2-[6-[4-[[1-[2-[4-[4-[(2,6-dioxo-3-piperidyl)amino]phenyl]-1-piperidyl]-2-oxo-acetyl]-4-piperidyl]oxy]phenyl]-4-fluoro-1-oxo-isoindolin-2-yl]-N-thiazol-2-yl-acetamide]	–	–	< 0.05 µM	< 0.05 µM
Cn1nc(N2CCC(=O)NC2=O)c2ccc(C3CCN(C(=O)CN4CC5(C4)CN(c4ccc(-c6ccc7cn(C(C(=O)Nc8nccs8)c8ncn9c8CCC9)nc7c6F)cn4)C5)CC3(F)F)cc21 (centres unmarked) [Compound 73, 2-(6,7-dihydro-5H-pyrrolo[1,2-c]imidazol-1-yl)-2-(6-(6-(6-(2-(4-(3-(2,4-dioxotetrahydropyrimidin-1(2H)-yl)-1-methyl-1H-indazol-6-yl)-3,3-difluoropiperidin-1-yl)-2-oxoethyl)-2,6-diazaspiro[3.3]heptan-2-yl)pyridin-3-yl)-7-fluoro-2H-indazol-2-yl)-N-(thiazol-2-yl)acetamide]	< 0.05 µM	< 0.05 µM	–	–
Cn1nc(N2CCC(=O)NC2=O)c2ccc(C3CCN(CC(=O)N4CC5(C4)CN(c4ccc(-c6cc(F)c7c(c6)C(=O)N(C(C(=O)Nc6nccs6)c6ncn8c6CCC8)C7)cc4)C5)CC3)cc21 (centres unmarked) [Compound 49, 2-(6,7-dihydro-5H-pyrrolo[1,2-c]imidazol-1-yl)-2-[6-[4-[2-[2-[4-[3-(2,4-dioxohexahydropyrimidin-1-yl)-1-methyl-indazol-6-yl]-1-piperidyl]acetyl]-2,6-diazaspiro[3.3]heptan-6-yl]phenyl]-4-fluoro-1-oxo-isoindolin-2-yl]-N-thiazol-2-yl-acetamide]	–	–	< 0.05 µM	< 0.05 µM
O=C1CCC(Nc2ccc(C3CCN(CC(=O)N4CCN(c5ccc(-c6cc(F)c7c(c6)C(=O)N(C(C(=O)Nc6nccs6)c6ncn8c6CCC8)C7)cc5)CC4)CC3)c(F)c2)C(=O)N1 (centres unmarked) [Compound 180, 2-(6,7-dihydro-5H-pyrrolo[1,2-c]imidazol-1-yl)-2-[6-[4-[4-[2-[4-[4-[(2,6-dioxo-3-piperidyl)amino]-2-fluoro-phenyl]-1-piperidyl]acetyl]piperazin-1-yl]phenyl]-4-fluoro-1-oxo-isoindolin-2-yl]-N-thiazol-2-yl-acetamide]	< 0.05 µM	< 0.05 µM	–	–
O=C1CC[C@H](Nc2ccc(C3CCN(CC(=O)N4CCC(c5ccc(-c6cc(F)c7c(c6)C(=O)N(C(C(=O)Nc6nccs6)c6ncn8c6CCC8)C7)cc5)CC4)CC3)cc2)C(=O)N1 (stereo partly drawn) [Compound 22, 2-(6,7-dihydro-5H-pyrrolo[1,2-c]imidazol-1-yl)-2-(6-(4-(1-(2-(4-(4-(((S)-2,6-dioxopiperidin-3-yl)amino)phenyl)piperidin-1-yl)acetyl)piperidin-4-yl)phenyl)-4-fluoro-1-oxoisoindolin-2-yl)-N-(thiazol-2-yl)acetamide]	–	–	< 0.05 µM	< 0.05 µM
O=C1CC[C@@H](Nc2ccc(C3CCN(CC(=O)N4CCN(c5ccc(-c6cc(F)c7c(c6)C(=O)N(C(C(=O)Nc6nccs6)c6ncn8c6CCC8)C7)cc5)CC4)CC3)cc2)C(=O)N1 (stereo partly drawn) [Compound 175, 2-(6,7-dihydro-5H-pyrrolo[1,2-c]imidazol-1-yl)-2-[6-[4-[4-[2-[4-[4-[[(3R)-2,6-dioxo-3-piperidyl]amino]phenyl]-1-piperidyl]acetyl]piperazin-1-yl]phenyl]-4-fluoro-1-oxo-isoindolin-2-yl]-N-thiazol-2-yl-acetamide]	< 0.05 µM	< 0.05 µM	–	–
O=C1CC[C@H](Nc2ccc(C3CCN(CC(=O)N4CCC(n5cc(-c6cc(F)c7c(c6)C(=O)N(C(C(=O)Nc6nccs6)c6ncn8c6CCC8)C7)cn5)CC4)CC3)cc2)C(=O)N1 (stereo partly drawn) [Compound 28, 2-(6,7-dihydro-5H-pyrrolo[1,2-c]imidazol-1-yl)-2-[6-[1-[1-[2-[4-[4-[[(3S)-2,6-dioxo-3-piperidyl]amino]phenyl]-1-piperidyl]acetyl]-4-piperidyl]pyrazol-4-yl]-4-fluoro-1-oxo-isoindolin-2-yl]-N-thiazol-2-yl-acetamide]	–	–	< 0.05 µM	< 0.05 µM
O=C1CCC(Nc2ccc(C3CCN(CC(=O)N4CCN(Cc5ccc(-c6cc(F)c7c(c6)C(=O)N(C(C(=O)Nc6nccs6)c6ncn8c6CCC8)C7)cc5)CC4)CC3)cc2)C(=O)N1 (centres unmarked) [Compound 6, 2-(6,7-dihydro-5H-pyrrolo[1,2-c]imidazol-1-yl)-2-[6-[4-[[4-[2-[4-[4-[(2,6-dioxo-3-piperidyl)amino]phenyl]-1-piperidyl]acetyl]piperazin-1-yl]methyl]phenyl]-4-fluoro-1-oxo-isoindolin-2-yl]-N-thiazol-2-yl-acetamide]	–	–	< 0.05 µM	< 0.05 µM
O=C1CC[C@H](Nc2ccc(C3CCN(CC(=O)N4CC5(CCN(c6ccc(-c7cc(F)c8c(c7)C(=O)N(C(C(=O)Nc7nccs7)c7ncn9c7CCC9)C8)cc6)CC5)C4)CC3)c(F)c2)C(=O)N1 (stereo partly drawn) [Compound 46, 2-(6,7-dihydro-5H-pyrrolo[1,2-c]imidazol-1-yl)-2-(6-(4-(2-(2-(4-(4-(((S)-2,6-dioxopiperidin-3-yl)amino)-2-fluorophenyl)piperidin-1-yl)acetyl)-2,7-diazaspiro[3.5]nonan-7-yl)phenyl)-4-fluoro-1-oxoisoindolin-2-yl)-N-(thiazol-2-yl)acetamide]	–	–	0.05 to 0.15 µM	0.05 to 0.15 µM

From patent US20240158418A1 (C4 Therapeutics, Inc., priority 2021, published 2024)
